Experimental data from ChEMBL document CHEMBL5532757, “Design, synthesis, and biological evaluation of 1,2,4-oxadiazole-based derivatives as multitarget anti-Alzheimer agents” (RSC Med Chem, 2024).
Counter-ions that a name gives are not always drawn. Calls of active or inactive are those of the source. No cut-off for these calls is given here.

How the values were obtained:
[1] = target: T1, Amine oxidase [flavin-containing] B (Homo sapiens, UniProt P27338); assay: Inhibition of human recombinant MAO-B expressed in baculovirus infected BTI insect cells measured after 30 to 90 sec by absorbance based assay; conditions: for inhibition (INH): human, bti, time 30-90 sec
T1 sequence (P27338 whole entry): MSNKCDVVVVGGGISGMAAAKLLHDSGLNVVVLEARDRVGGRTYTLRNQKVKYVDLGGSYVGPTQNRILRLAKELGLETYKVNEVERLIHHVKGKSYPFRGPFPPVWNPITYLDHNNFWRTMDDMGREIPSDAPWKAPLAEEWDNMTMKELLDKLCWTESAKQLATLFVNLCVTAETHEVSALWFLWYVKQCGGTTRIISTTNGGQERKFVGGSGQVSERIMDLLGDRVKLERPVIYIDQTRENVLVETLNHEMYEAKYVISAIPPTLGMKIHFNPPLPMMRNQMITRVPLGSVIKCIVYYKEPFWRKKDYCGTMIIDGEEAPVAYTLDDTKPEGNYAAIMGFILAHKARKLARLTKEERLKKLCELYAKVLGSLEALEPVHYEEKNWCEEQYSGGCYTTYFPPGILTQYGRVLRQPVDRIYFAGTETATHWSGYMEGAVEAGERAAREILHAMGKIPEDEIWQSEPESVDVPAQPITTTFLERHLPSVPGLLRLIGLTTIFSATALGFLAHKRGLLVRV

[2] = Antioxidant activity assessed as DPPH radical scavenging activity measured after 30 mins by spectrophotometric analysis; assay type: functional
[3] = target: T2, Amine oxidase [flavin-containing] A (Homo sapiens, UniProt P21397); assay: Inhibition of MAO-A (unknown origin) measured after 30 to 90 sec by absorbance based assay; conditions: for inhibition (INH): human, time 30-90 sec
T2 sequence (P21397 whole entry): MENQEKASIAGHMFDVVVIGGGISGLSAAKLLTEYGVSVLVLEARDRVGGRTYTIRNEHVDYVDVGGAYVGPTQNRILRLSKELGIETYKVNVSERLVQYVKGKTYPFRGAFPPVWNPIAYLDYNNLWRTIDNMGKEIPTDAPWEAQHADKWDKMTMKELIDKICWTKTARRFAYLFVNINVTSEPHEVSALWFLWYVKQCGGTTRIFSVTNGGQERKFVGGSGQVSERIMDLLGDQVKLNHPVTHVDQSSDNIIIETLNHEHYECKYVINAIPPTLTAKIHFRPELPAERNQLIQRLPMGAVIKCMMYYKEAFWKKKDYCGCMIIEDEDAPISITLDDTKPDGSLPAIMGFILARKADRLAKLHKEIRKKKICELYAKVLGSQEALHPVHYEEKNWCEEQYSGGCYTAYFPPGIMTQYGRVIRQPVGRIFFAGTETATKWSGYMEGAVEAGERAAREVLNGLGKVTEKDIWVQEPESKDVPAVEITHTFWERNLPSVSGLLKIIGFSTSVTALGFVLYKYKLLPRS

[4] = target: T3, Cholinesterase (Homo sapiens, UniProt P06276); assay: Inhibition of BChE (unknown origin) using butyrylthiocholine iodide as substrate incubated for 15 mins by DTNB reagent based ELISA
T3 sequence (P06276 whole entry): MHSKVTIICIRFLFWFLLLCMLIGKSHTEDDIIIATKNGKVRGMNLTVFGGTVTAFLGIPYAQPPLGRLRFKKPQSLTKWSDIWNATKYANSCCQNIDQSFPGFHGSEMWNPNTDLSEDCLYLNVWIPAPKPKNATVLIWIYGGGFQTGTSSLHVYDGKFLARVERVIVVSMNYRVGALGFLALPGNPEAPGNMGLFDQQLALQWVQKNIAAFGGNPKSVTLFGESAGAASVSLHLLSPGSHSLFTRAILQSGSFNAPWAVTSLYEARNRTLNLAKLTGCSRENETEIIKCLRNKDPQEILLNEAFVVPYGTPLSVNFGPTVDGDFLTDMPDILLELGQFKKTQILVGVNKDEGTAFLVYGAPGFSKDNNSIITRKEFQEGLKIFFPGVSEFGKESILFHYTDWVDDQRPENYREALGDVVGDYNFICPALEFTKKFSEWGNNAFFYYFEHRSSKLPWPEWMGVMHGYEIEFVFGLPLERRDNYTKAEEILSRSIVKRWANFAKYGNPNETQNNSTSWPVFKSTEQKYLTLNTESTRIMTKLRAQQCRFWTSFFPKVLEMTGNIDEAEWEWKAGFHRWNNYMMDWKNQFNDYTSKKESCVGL

[5] = target: T4, Acetylcholinesterase (Homo sapiens, UniProt P22303); assay: Potency index, ratio of donepezil IC50 to test compound IC50 for inhibition of AChE (unknown origin) using acetylthiocholine iodide as substrate incubated for 15 mins by DTNB reagent based ELISA
T4 sequence (P22303 whole entry): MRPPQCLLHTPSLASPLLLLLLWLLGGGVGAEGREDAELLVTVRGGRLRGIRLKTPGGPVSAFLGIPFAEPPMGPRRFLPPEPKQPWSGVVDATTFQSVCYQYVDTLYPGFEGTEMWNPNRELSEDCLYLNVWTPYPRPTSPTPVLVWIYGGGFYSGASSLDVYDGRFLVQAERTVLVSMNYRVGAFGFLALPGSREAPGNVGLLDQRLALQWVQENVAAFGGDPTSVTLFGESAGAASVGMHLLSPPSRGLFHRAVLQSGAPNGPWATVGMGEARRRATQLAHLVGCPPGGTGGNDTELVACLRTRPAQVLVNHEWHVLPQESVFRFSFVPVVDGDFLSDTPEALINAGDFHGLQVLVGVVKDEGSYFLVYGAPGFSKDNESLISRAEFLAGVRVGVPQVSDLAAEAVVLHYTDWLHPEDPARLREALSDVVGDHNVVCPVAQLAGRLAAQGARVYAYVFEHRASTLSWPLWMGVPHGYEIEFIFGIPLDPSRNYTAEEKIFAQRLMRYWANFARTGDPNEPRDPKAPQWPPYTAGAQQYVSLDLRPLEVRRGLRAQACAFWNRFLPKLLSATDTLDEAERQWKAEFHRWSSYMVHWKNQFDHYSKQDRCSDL

[6] = Selectivity index, ratio of IC50 for inhibition of BChE (unknown origin) using butyrylthiocholine iodide as substrate to IC50 for inhibition of AChE (unknown origin) using acetylthiocholine iodide as substrate
[7] = target: T4, Acetylcholinesterase; assay: Inhibition of AChE (unknown origin) using acetylthiocholine iodide as substrate incubated for 15 mins by DTNB reagent based ELISA
[8] = target: T3, Cholinesterase; assay: Inhibition of human BChE using butyrylthiocholine iodide as substrate preincubated for 5 mins followed by substrate addition and measured after 2 mins by absorbance based microplate reader
[9] = target: T4, Acetylcholinesterase; assay: Inhibition of human recombinant AChE using acetylthiocholine iodide as substrate preincubated for 5 mins followed by substrate addition and measured after 2 mins by absorbance based microplate reader

CCCNC(C)C(=O)Nc1c(C)csc1-c1nc(-c2ccccc2)no1 (centres undefined)
IC50 [1]: 225 µM
IC50 [2]: 1150 µM
IC50 [3]: 380 µM
IC50 [4]: 33.2 µM
Ratio IC50 [5]: 1.01
Ratio IC50 [6]: 325
IC50 [7]: 0.102 µM

CCCNC(C)C(=O)Nc1c(C)csc1-c1nc(-c2ccccc2N)no1 (centres undefined)
IC50 [1]: 289 µM
IC50 [2]: 959 µM
IC50 [3]: 248 µM
IC50 [4]: 54.5 µM
Ratio IC50 [5]: 1.01
Ratio IC50 [6]: 449
IC50 [7]: 0.121 µM

CCCCOc1cc(-c2nc(-c3ccccc3)no2)ccc1N
inhibition (INH) [1]: Not Active
IC50 [2]: 59.2 µM
inhibition (INH) [3]: Not Active
IC50 [4]: 11.5 µM
Ratio IC50 [6]: 60.3
IC50 [7]: 0.191 µM

CCCNC(C)C(=O)Nc1c(C)csc1-c1nc(Cc2ccccc2)no1 (centres undefined)
IC50 [1]: 74.7 µM
IC50 [2]: 1350 µM
IC50 [3]: 197 µM
IC50 [4]: 41.4 µM
Ratio IC50 [5]: 1.01
Ratio IC50 [6]: 856
IC50 [7]: 0.048 µM

Cc1cc(NS(=O)(=O)c2ccc(-n3cc(COc4ccccc4-c4nc(-c5ccccc5)no4)nn3)cc2)no1
inhibition (INH) [1]: Not Active
IC50 [2]: 56.7 µM
inhibition (INH) [3]: Not Active
IC50 [4]: 26.1 µM
Ratio IC50 [5]: 1.01
Ratio IC50 [6]: 250
IC50 [7]: 0.104 µM

O=C1O[C@H]([C@@H](O)CO)C(O)=C1O [ASCORBIC ACID]
IC50 [2]: 74.5 µM

CCCNC(C)C(=O)Nc1c(C)csc1-c1nc(C)no1 (centres undefined)
inhibition (INH) [1]: Not Active
Activity [2]: inactive
IC50 [3]: 1260 µM
IC50 [4]: 125 µM
Ratio IC50 [6]: 622
IC50 [7]: 0.201 µM

OC(CCN1CCCCC1)(c1ccccc1)C1CC2C=CC1C2 (centres undefined) [BIPERIDEN HYDROCHLORIDE]
IC50 [1]: 266 µM

CC(=NNC(=O)COc1ccccc1-c1nc(Cc2ccccc2)no1)c1nnn(-c2ccc(S(N)(=O)=O)cc2)c1C
inhibition (INH) [1]: Not Active
Activity [2]: inactive
inhibition (INH) [3]: Not Active
inhibition [4]: inactive
inhibition [7]: inactive

CC(CCCCn1c(=O)c2c(ncn2C)n(C)c1=O)=NNC(=O)COc1ccccc1-c1nc(-c2ccccc2)no1
inhibition (INH) [1]: Not Active
Activity [2]: inactive
inhibition (INH) [3]: Not Active
IC50 [4]: 15 µM
Ratio IC50 [5]: 1.01
Ratio IC50 [6]: 159
IC50 [7]: 0.094 µM

Cc1cc(=O)oc2cc(OCc3ccc(-c4noc([C@@H]5CCCN5)n4)cc3)ccc12
IC50 [8]: 8.17 µM
IC50 [9]: 77.6 µM

Cc1cc(NS(=O)(=O)c2ccc(NC(=O)COc3ccccc3-c3nc(-c4ccccc4)no3)cc2)no1
inhibition (INH) [1]: Not Active
Activity [2]: inactive
inhibition (INH) [3]: Not Active
IC50 [4]: 26.7 µM
Ratio IC50 [5]: 1.01
Ratio IC50 [6]: 283
IC50 [7]: 0.094 µM

Cc1cc(NS(=O)(=O)c2ccc(-n3cc(COc4ccccc4-c4nc(-c5ccc(C(F)(F)F)cc5)no4)nn3)cc2)no1
inhibition (INH) [1]: Not Active
Activity [2]: inactive
IC50 [3]: 273 µM
inhibition [4]: inactive
inhibition [7]: inactive

CCCCOc1cc(-c2nc(C)no2)ccc1N
inhibition (INH) [1]: Not Active
Activity [2]: inactive
inhibition (INH) [3]: Not Active
IC50 [4]: 47.6 µM
Ratio IC50 [5]: 1.01
Ratio IC50 [6]: 3010
IC50 [7]: 0.016 µM

Cc1noc(-c2ccc(N)cc2)n1
inhibition (INH) [1]: Not Active
IC50 [2]: 105 µM
inhibition (INH) [3]: Not Active
IC50 [4]: 138 µM
Ratio IC50 [5]: 1.01
Ratio IC50 [6]: 1320
IC50 [7]: 0.104 µM

Cc1cc(NS(=O)(=O)c2ccc(-n3cc(COc4ccccc4-c4nc(Cc5ccccc5)no4)nn3)cc2)no1
inhibition (INH) [1]: Not Active
Activity [2]: inactive
IC50 [3]: 533 µM
inhibition [4]: inactive
Ratio IC50 [5]: 1.01
IC50 [7]: 0.103 µM

CC(CCCCn1c(=O)c2c(ncn2C)n(C)c1=O)=NNC(=O)COc1ccccc1-c1nc(Cc2ccccc2)no1
inhibition (INH) [1]: Not Active
Activity [2]: inactive
IC50 [3]: 957 µM
inhibition [4]: inactive
inhibition [7]: inactive

Nc1ccc(-c2nc(-c3ccccc3N)no2)cc1
inhibition (INH) [1]: Not Active
Activity [2]: inactive
inhibition (INH) [3]: Not Active
IC50 [4]: 85.6 µM
Ratio IC50 [6]: 427
IC50 [7]: 0.201 µM
